Experiments:
[1] = test system: HCV replicon (BB7 sequence) in Huh-7-Clone A cells; assay: HCV replicon assay: ELISA of NS5A protein in replicon-containing cells (Inhibition of Viral RNA Replication); format: cell-based; conditions: Hepatitis C virus; HCV replicon assay; ranges of EC50; read-out: Replicon
Summary of the method: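 EC50 taken from an 8-point serially diluted dose curve, with NS5A level as read-out: fixed cells probed with primary monoclonal and HRP-conjugated secondary, TMB developed 30 min, OD 650 nm. Compound exposure 72 h in Huh-7-Clone A replicon cells (BB7 sequence).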

HCV NS5B = molecular target: T1, HCV NS5B (Hepatitis C virus genotype 1b, UniProt Q9WMX2); assay: Inhibition of viral RNA-dependent RNA polymerase (RdRp), in vitro biochemical assay; set-up: species or system HCV genotype 1b virus (BB7); conditions: HCV NS5B RdRp, BB7; activity class; read-out: HCV pol-BB7 IC50
T1 construct: fusion protein, of which the carboxyl terminal 21 amino acids were removed to enhance its solubility; His tag (GSHHHHHH); made in house; host or cells: E. coli
Summary of the method: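 IC50 values are the concentrations that halve in vitro RNA synthesis by HCV NS5B polymerase. The enzyme was a C-terminally truncated (Δ21), His-tagged genotype 1b (BB7 consensus) protein purified from E. coli.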

Row | Compound | EC50 [1] | IC50 (HCV NS5B)
1 | CNC(=O)c1c(-c2ccc(F)cc2)oc2cc(-c3c(COC)noc3C3CC3)c(OC)cc12 [Example 344, 6-(5-Cyclopropyl-3-methoxymethyl-isoxazol-4-yl)-2-(4-fluoro-phenyl)-5-methoxy-benzofuran-3-carboxylic acid methylamide] | < 1000 nM | ≤ 500 nM
2 | CNC(=O)c1c(-c2ccc(F)cc2)oc2cc(C3CCN(C(C)=O)C3)c(OC)cc12 (centres unmarked) [Example 345, 6-(1-Acetyl-pyrrolidin-3-yl)-2-(4-fluoro-phenyl)-5-methoxy-benzofuran-3-carboxylic acid methylamide] | < 10000 nM | ≤ 500 nM
3 | CNC(=O)c1c(-c2ccc(F)cc2)oc2cc(N(C)S(C)(=O)=O)c(OCc3ccc(F)c(F)c3)cc12 [Example 346, 5-(3,4-Difluoro-benzyloxy)-2-(4-fluoro-phenyl)-6-(methanesulfonyl-methyl-amino)-benzofuran-3-carboxylic acid methylamide] | < 1000 nM | ≤ 500 nM
4 | CNC(=O)c1c(-c2ccc(F)cc2)oc2cc(N(C)S(C)(=O)=O)c(OCc3ccccc3OC(F)F)cc12 [Example 347, 5-(2-Difluoromethoxy-benzyloxy)-2-(4-fluoro-phenyl)-6-(methanesulfonyl-methyl-amino)-benzofuran-3-carboxylic acid methylamide] | < 1000 nM | ≤ 500 nM
5 | CCCOc1cc2c(C(=O)NC)c(-c3ccc(F)cc3)oc2cc1N(C)S(C)(=O)=O [Example 348, 2-(4-Fluoro-phenyl)-6-(methanesulfonyl-methyl-amino)-5-propoxy-benzofuran-3-carboxylic acid methylamide] | < 1000 nM | ≤ 500 nM
6 | C=CCOc1cc2c(C(=O)NC)c(-c3ccc(F)cc3)oc2cc1N(C)S(C)(=O)=O [Example 349, 5-Allyloxy-2-(4-fluoro-phenyl)-6-(methanesulfonyl-methyl-amino)-benzofuran-3-carboxylic acid methylamide] | < 1000 nM | ≤ 500 nM
7 | CCOCc1cc(-c2cc3oc(-c4ccc(F)cc4)c(C(=O)NC)c3cc2OC)no1 [Example 350, 6-(5-Ethoxymethyl-isoxazol-3-yl)-2-(4-fluoro-phenyl)-5-methoxy-benzofuran-3-carboxylic acid methylamide] | < 1000 nM | ≤ 500 nM
8 | CNC(=O)c1c(-c2ccc(F)cc2)oc2cc(N(C)S(C)(=O)=O)c(OCC3CC3)cc12 [Example 351, 5-Cyclopropylmethoxy-2-(4-fluoro-phenyl)-6-(methanesulfonyl-methyl-amino)-benzofuran-3-carboxylic acid methylamide] | < 1000 nM | ≤ 500 nM
9 | CNC(=O)c1c(-c2ccc(F)cc2)oc2cc(N(C)S(C)(=O)=O)c(OCc3cc(OC)cc(OC)c3)cc12 [Example 352, 5-(3,5-Dimethoxy-benzyloxy)-2-(4-fluoro-phenyl)-6-(methanesulfonyl-methyl-amino)-benzofuran-3-carboxylic acid methylamide] | < 1000 nM | ≤ 500 nM
10 | CNC(=O)c1c(-c2ccc(F)cc2)oc2cc(N(C)S(C)(=O)=O)c(OCc3ccc(S(C)(=O)=O)cc3)cc12 [Example 353, 2-(4-Fluoro-phenyl)-5-(4-methanesulfonyl-benzyloxy)-6-(methanesulfonyl-methyl-amino)-benzofuran-3-carboxylic acid methylamide] | < 1000 nM | ≤ 500 nM
11 | CNC(=O)c1c(-c2ccc(F)cc2)oc2cc(N(C)S(C)(=O)=O)c(OCC(=O)c3ccc(OC)cc3)cc12 [Example 355, 2-(4-Fluoro-phenyl)-6-(methanesulfonyl-methyl-amino)-5-[2-(4-methoxy-phenyl)-2-oxo-ethoxy]-benzofuran-3-carboxylic acid methylamide] | < 1000 nM | ≤ 500 nM
12 | CNC(=O)c1c(-c2ccc(F)cc2)oc2cc(N(C)S(C)(=O)=O)c(OCc3cccc(C#N)c3)cc12 [Example 356, 5-(3-Cyano-benzyloxy)-2-(4-fluoro-phenyl)-6-(methanesulfonyl-methyl-amino)-benzofuran-3-carboxylic acid methylamide] | < 1000 nM | ≤ 500 nM
13 | CNC(=O)c1c(-c2ccc(F)cc2)oc2cc(N(C)S(C)(=O)=O)c(OCc3ccc(C#N)cc3)cc12 [Example 357, 5-(4-Cyano-benzyloxy)-2-(4-fluoro-phenyl)-6-(methanesulfonyl-methyl-amino)-benzofuran-3-carboxylic acid methylamide] | < 1000 nM | ≤ 500 nM
14 | CCOC(=O)c1ccc(NC(=O)COc2cc3c(C(=O)NC)c(-c4ccc(F)cc4)oc3cc2N(C)S(C)(=O)=O)cc1 [Example 359, 4-{2-[2-(4-Fluoro-phenyl)-6-(methanesulfonyl-methyl-amino)-3-methylcarbamoyl-benzofuran-5-yloxy]-acetylamino}-benzoic acid ethyl ester] | < 10000 nM | ≤ 500 nM
15 | CNC(=O)c1c(-c2ccc(F)cc2)oc2cc(N(C)S(C)(=O)=O)c(OCC(=O)c3ccc(F)cc3)cc12 [Example 360, 2-(4-Fluoro-phenyl)-5-[2-(4-fluoro-phenyl)-2-oxo-ethoxy]-6-(methanesulfonyl-methyl-amino)-benzofuran-3-carboxylic acid methylamide] | < 1000 nM | ≤ 500 nM
16 | CNC(=O)c1c(-c2ccc(F)cc2)oc2cc(N(Cc3ccccc3)S(C)(=O)=O)c(OC(C)C)cc12 [Example 361, 6-(Benzyl-methanesulfonyl-amino)-2-(4-fluoro-phenyl)-5-isopropoxy-benzofuran-3-carboxylic acid methylamide] | < 1000 nM | ≤ 500 nM
17 | CCN(C)c1cc2oc(-c3ccc(F)cc3)c(C(=O)NC)c2c(Cl)c1OC [Example 362, 4-Chloro-6-(ethyl-methyl-amino)-2-(4-fluoro-phenyl)-5-methoxy-benzofuran-3-carboxylic acid methylamide] | < 10000 nM | ≤ 500 nM
18 | CCNc1cc2oc(-c3ccc(F)cc3)c(C(=O)NC)c2c(Cl)c1OC [Example 363, 4-Chloro-6-ethylamino-2-(4-fluoro-phenyl)-5-methoxy-benzofuran-3-carboxylic acid mehtylamide] | < 1000 nM | ≤ 500 nM
19 | CCNc1cc2oc(-c3ccc(F)cc3)c(C(=O)NC)c2cc1O [Example 364, 6-Ethylamino-2-(4-fluoro-phenyl)-5-hydroxy-benzofuran-3-carboxylic acid methylamide] | > 30000 nM | 500 to 5000 nM
20 | CCNc1cc2oc(-c3ccc(F)cc3)c(C(=O)NC)c2cc1OCCCBr [Example 365, 5-(3-Bromo-propoxy)-6-ethylamino-2-(4-fluoro-phenyl)-benzofuran-3-carboxylic acid methylamide] | < 1000 nM | ≤ 500 nM
21 | C=CCOc1cc2c(C(=O)NC)c(-c3ccc(F)cc3)oc2cc1NCC [Example 366, 5-Allyloxy-6-ethylamino-2-(4-fluoro-phenyl)-benzofuran-3-carboxylic acid methylamide] | < 1000 nM | ≤ 500 nM
22 | CCNc1cc2oc(-c3ccc(F)cc3)c(C(=O)NC)c2cc1OCCCOCC [Example 367, 5-(3-Ethoxy-propoxy)-6-ethylamino-2-(4-fluoro-phenyl)-benzofuran-3-carboxylic acid methylamide] | < 1000 nM | ≤ 500 nM
23 | CNC(=O)c1c(-c2ccc(F)cc2)oc2cc(C3CCCN3C(N)=O)c(OC)cc12 (centres unmarked) [Example 368, 2-[2-(4-Fluoro-phenyl)-5-methoxy-3-methylcarbamoyl-benzofuran-6-yl]-pyrrolidine-1-carboxylic acid amide] | < 1000 nM | ≤ 500 nM
24 | CNC(=O)c1c(-c2ccc(F)cc2)oc2cc(N(C)S(C)(=O)=O)c(OCC(C)=O)cc12 [Example 369, 2-(4-Fluoro-phenyl)-6-(methanesulfonyl-methyl-amino)-5-(2-oxo-propoxy)-benzofuran-3-carboxylic acid methylamide] | < 1000 nM | ≤ 500 nM
25 | CNC(=O)c1c(-c2ccc(F)cc2)oc2cc(N(C)S(C)(=O)=O)c(OCC(C)O)cc12 (centres unmarked) [Example 370, 2-(4-Fluoro-phenyl)-5-(2-hydroxy-propoxy)-6-(methanesulfonyl-methyl-amino)-benzofuran-3-carboxylic acid methylamide] | < 1000 nM | ≤ 500 nM
26 | CNC(=O)c1c(-c2ccc(F)cc2)oc2cc(N(C)S(C)(=O)=O)c(OCc3nnnn3C)cc12 [Example 371, 2-(4-Fluoro-phenyl)-6-(methanesulfonyl-methyl-amino)-5-(1-methyl-1H-tetrazol-5-ylmethoxy)-benzofuran-3-carboxylic acid methylamide] | < 1000 nM | ≤ 500 nM
27 | CNC(=O)c1c(-c2ccc(F)cc2)oc2cc(-c3cc(COC(C)C)on3)c(OC)cc12 [Example 372, 2-(4-Fluoro-phenyl)-6-(5-isopropoxymethyl-isoxazol-3-yl)-5-methoxy-benzofuran-3-carboxylic acid methylamide] | < 1000 nM | ≤ 500 nM
28 | CCN(CC)c1nc(COc2cc3c(C(=O)NC)c(-c4ccc(F)cc4)oc3cc2N(C)S(C)(=O)=O)ns1 [Example 373, 5-(5-Diethylamino-[1,2,4]thiadiazol-3-ylmethoxy)-2-(4-fluoro-phenyl)-6-(methanesulfonyl-methyl-amino)-benzofuran-3-carboxylic acid methylamide] | < 1000 nM | ≤ 500 nM

From patent US7265152B2 (ViroPharma Incorporated, priority 2002, dated 2007)
